The text below walks through data of paper PMC7827809, “Responses of the Pheromone-Binding Protein of the Silk Moth Bombyx mori on a Graphene Biosensor Match Binding Constants in Solution” (Sensors (Basel, Switzerland), 2021).

SMILES strings stand for the structures. Entries after “also recorded” stand apart in the source; their conditions may differ. Read-outs that look alike come from different tables or passages of the source. A value given as a limit tells only on which side of the number the result lay.

For test [1], the target named is T1, BmorPBP1 immobilized on reduced graphene oxide field-effect transistor (Bombyx mori, UniProt P34174).
T1 construct: polyhistidine (his-tag, from pET15b) (N); made in house; host or cells: Escherichia coli
T1 sequence (P34174 23-164): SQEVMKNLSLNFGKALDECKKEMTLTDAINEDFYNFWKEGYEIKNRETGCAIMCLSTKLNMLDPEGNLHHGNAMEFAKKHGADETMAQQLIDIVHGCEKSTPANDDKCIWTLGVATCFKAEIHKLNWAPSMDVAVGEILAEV
Briefly: BmorPBP1-functionalized rGO-FET biosensor (titration and kinetic runs, Langmuir model). The format is binding. The procedure: Reduced graphene oxide field-effect transistors (rGO-FET) were fabricated as previously described with a modified channel width of 30 µm. Electrical properties of the FET devices were tested along with the procedure. For the detection of different odorants, the rGO-based biosensors were functionalized with BmorPBP1. Briefly, for the attachment of the protein to the sensing area, the graphene surface was chemically modified with a bifunctional linker: a 10-μL droplet of a 10-μM 6-(4-(pyren-3-yl) butanamido)-2-(bis(carboxymethyl) amino) hexanoic acid solution was applied overnight to the rGO channel area, rinsed, incubated for 30 min with a 40-mM NiCl2 solution (pH 5.5, adjusted with KOH), rinsed, then incubated with 20 μL of a 10-μM protein solution, followed by a final rinse.
The evaluation of BmorPBP1 binding affinities to various odorants was performed under the following standardized conditions: electrical measurements were taken using a Keithley 4200 semiconductor characterization system. An Ag/AgCl reference electrode (Flex ref, World Precision Instruments) was used to operate the FET device in liquid gate configuration with a constant gate bias (Vg) of −0.6 V and a constant source-drain bias (VDS) of 0.05 V. A flow rate of the odorant solutions in the flow cell was set at 300 µL/min in order to minimize mass transfer limitations of the analytes to the sensor surface. […] Subsequently, the biosensor was titrated with different odorant concentrations (1 μM–4 mM) and the change in source–drain current (ΔIDS) was monitored in real time. Here, the lowest odorant concentration was injected first, and the odorant was allowed to interact with the surface immobilized BmorPBP1 to reach equilibrium, as indicated by a constant source–drain current. This process was repeated with odorant solutions of higher concentrations, until the surface was fully saturated with the target analyte, as indicated by a constant source–drain current (IDS). Surface titration experiments were terminated by a final washing step using pure buffer in order to dissociate the formed PBP1-odorant complex, resulting in almost complete restoration of the initial baseline current. […] For this reason, the drain current response curves were normalized by subtraction to the baseline current. Kinetic parameters, as well as the dissociation constant, Kd, of the above described titration experiments were analyzed using the Langmuir model.
With the electronic transducer directly coupled to a flow cell, one can perform titrations as well as kinetic measurements by online changing of the analyte solution (pure buffer, different analytes at different concentrations) flowing through the cell, while recording the sensor response, i.e., a change in the source–drain current, ΔIDS = IDS − IDSBaseline, in real time.
Earlier studies have given evidence that the underlying molecular mechanism of the recognition and binding of odorant analytes from solution to the surface-immobilized protein, BmorPBP1 in this case, can be well described by the Langmuir adsorption model: the sensor has a fixed number of binding sites on its surface, whose occupancy is measured by Θ, the coverage, ranging from 0 to 1. […] The Langmuir model describes this relation between the coverage, Θ, and the bulk analyte concentration, c0 , by Equation (1):(1) Θ(c0)=ΔIDS(c0)/ΔIDS(c∞)=c0/Kd/(1+c0/Kd)
Alternatively, with the flow cell attached, one can measure the kinetics of the sensor response, ΔIDS, after changing the concentration in the bulk to another value. For an increase of the bulk concentration this can be described in the Langmuir model by Equation (2):(2) Θ(t)=c0/Kd/(1+c0/Kd)·(1−e^−(konc0+koff)t)
Measuring this association of kinetics at different bulk concentrations then allows for the determination of the rate constants, kon and koff. […]

In test [2] the target is T2, BmorPBP1 (Bombyx mori pheromone-binding protein PBP1) (Bombyx mori, UniProt P34174).
T2 construct: polyhistidine (his-tag, from pET15b) (N); made in house; host or cells: Escherichia coli
T2 sequence (P34174 23-164): T1 sequence (P34174 23-164)
Kind of test: Fluorescence binding assay in solution (1-NPN titration and competitive displacement). Particulars: for binding in solution (displacement of 1-NPN), in words: pH 7.4, protein and probe 2 μM. The procedure:
Dissociation constants were measured in solution along with the widely adopted fluorescence binding assay. Spectra were recorded on a PerkinElmer FL 6500 spectrofluorometer at room temperature in a right-angle configuration, with a 1-cm light path quartz cuvette and 5-nm slits for both excitation and emission.
First, the binding of BmorPBP1 to the fluorescent probe N-phenyl-1-naphthylamine (1-NPN) […] of 1-NPN in methanol to final concentrations of 2–16 μM. Excitation wavelength was 337 nm and intensity was recorded at the maximum of the emission peak, 408 nm. The affinities of other ligands were evaluated in competitive binding assays by titrating a solution of the protein and 1-NPN, both at the concentration of 2 μM, with aliquots of 1-mM methanol solutions of each chemical to final concentrations of 2–16 μM. The affinity to 1-NPN was calculated using Prism software. Dissociation constants of competing ligands were evaluated from the corresponding [IC]50 values (the concentration of each ligand halving the initial value of fluorescence), using the equation: Kd = [IC]50/1 + [1-NPN]/KNPN, where [1-NPN] is the concentration of free 1-NPN and KNPN the dissociation constant of the complex Protein/1-NPN.

Test [3] has as its target T2, BmorPBP1 (Bombyx mori pheromone-binding protein PBP1). The note with it: at concentrations of 7 μM ref 31; cited from earlier work.
The mark [4] stands for this setting: immobilized protein, pH 8.0, kinetic runs, averaged results, read-out: Sensor Data Kd, Kinetics.
The mark [5] stands for this setting: competitive displacement of 1-NPN, protein and probe 2 μM, 50 mM Tris-Cl pH 7.4, read-out: Solution Data Kd.
Where [6] appears, read: immobilized protein, pH 8.0, Langmuir isotherm fit, read-out: Sensor Data Kd, Titration.
[7] abbreviates: Sensor Data Kd, Kinetics, immobilized protein, pH 8.0, kinetic runs, averaged results.

`CCC/C=C\C=C\CCCCCCCCC=O` [Bombykal, bombykal]: the values for the Kd in test [1] (setting [4]) and in test [2] (setting [5]) were 7.4 µM and 1.1 µM, respectively. Besides, the “binding in solution (displacement of 1-NPN), in words” value in test [2] is recorded as “strongest ligand”. In addition, in test [3], the “displacement of the fluorescence probe 1-NPN, in words” value is “efficiently and similarly displace”.
Take `CC(=O)OCCC(C)C` [Isoamyl acetate, isoamyl acetate]: the Kd was > 1000 µM in test [1] (setting [4]) and ~20 µM in test [2] (setting [5]). The “sensor response (ΔIDS), in words” value in test [1] (physiological pH / pH 8) is “does not give a significant response”; in test [1] (physiological pH / pH 8, listed as isoamyl acetate), “very weak responses”. Besides, the “binding in solution (displacement of 1-NPN), in words” value in test [2] is on record as “poor binding”.
For the molecule `c1ccc(Nc2cccc3ccccc23)cc1` [1-NPN, N-phenyl-1-naphthylamine], the Kd in test [2] amounted to 0.75 µM.
For the molecule `C=CC(C)(O)CCC=C(C)C` (centres unmarked) [Linalool, linalool], the Kd in test [1] (setting [4]) was > 1000 µM; in test [2] (setting [5]) it was ~40 µM. Also, the “sensor response (ΔIDS), in words” value in test [1] (physiological pH / pH 8) is on record as “very weak responses”. In addition, the “binding in solution (displacement of 1-NPN), in words” value in test [2] is “poor binding”.
For the molecule `CCC/C=C\C=C\CCCCCCCCCO` [Bombykol, bombykol], the Kd in test [1] (immobilized protein, pH 4.0, read-out: Sensor Data Kd, Kinetics) is > 1000 µM; in test [1] (setting [6]), 9.8 µM; in test [1] (setting [4]), 8.2 µM; in test [1] (pH 8, single global analysis run of Figure 2A(I)/2C, read-out: kinetically-determined dissociation constant Kd (koff/kon)), 4.7 µM; in test [2] (competitive displacement of 1-NPN, pH 4.0, read-out: Solution Data Kd), > 100 µM; in test [2] (setting [5]), 0.94 µM. In addition, the “sensor response (ΔIDS) at pH 4, in words” value in test [1] (pH 4) is given as “failed to bind; also recorded: barely detectable”. Further, in test [2] (pH 4), the “binding in solution at pH 4, in words” value is listed as “completely abolished; also recorded: failed to bind”. Moreover, in test [2], the “binding in solution (displacement of 1-NPN), in words” value is on record as “strongest ligand”. Moreover, the “displacement of the fluorescence probe 1-NPN, in words” value in test [3] was “efficiently and similarly displace”.
`CC(C)=CCC/C(C)=C/CO` [Geraniol, geraniol] displayed a Kd in test [1] (setting [7]) of 470 µM. Further, the “sensor response (ΔIDS), in words” value in test [1] (physiological pH / pH 8) is listed as “very weak responses”. Moreover, in test [2], the Kd was ~20 µM and the “binding in solution (displacement of 1-NPN), in words” value is recorded as “poor binding”.
On to `COc1nccnc1CC(C)C` [2-Isobutyl-3-methoxypyrazine, 2-isobutyl-3-methoxypyrazine], for which the Kd in test [1] (setting [6]) was 2800 µM; in test [1] (setting [4]) it was 1300 µM; in test [2] (setting [5]), > 100 µM. Also, the “sensor response (ΔIDS), in words” value in test [1] (physiological pH / pH 8) is recorded as “very weak responses”. Besides, in test [2], the “binding in solution (displacement of 1-NPN), in words” value is “poor binding”.
Consider `C=CCc1ccc(O)c(OC)c1` [Eugenol, eugenol], for which the Kd came out at 8.1 µM in test [1] (setting [7]); 7.6 µM in test [1] (Sensor Data Kd, Titration, immobilized protein, pH 8.0, Langmuir isotherm fit); 2.8 µM in test [2] (setting [5]). In addition, the “sensor response (ΔIDS), in words” value in test [1] (physiological pH / pH 8) is recorded as “strong signal”. In test [2], the “binding in solution (displacement of 1-NPN), in words” value is recorded as “appreciable affinity”.
